What was measured:
HEp-2 = test: MTT cytotoxicity, 72 h; format: cell-based, human
Experimental: (§1) The cytotoxicity assessment was performed against three human cancer cell lines in suspension (K562, HL-60 and MOLT-4) and four adhered (HEp-2, NCI-H292, HT-29 and MCF-7).
(§2) The cells were obtained from the Cell Bank of Rio de Janeiro and maintained in the Laboratory of Cell Culture of the Department of Antibiotics of the Federal University of Pernambuco. The lines K562 (myeloblastic leukaemia), HL-60 (promyelocytic leukemia) and MOLT-4 (lymphoblastic leukemia) were cultured in RPMI 1640 medium and the lines HEp-2 (larynx carcinoma), NCI-H292 (lung carcinoma), HT-29 (colon adenocarcinoma) and MCF-7 (breast adenocarcinoma) were cultured in DMEM medium, supplemented with 10% fetal bovine serum, 2 mM glutamine, 100 U/mL penicillin and 100 μg/mL streptomycin (Gibco™ Life Technologies), at 37 °C and 5% CO2.
(§3) The evaluation of the cytotoxicity of the compounds was performed by the method of 3-(4,5-dimethyl-2-thiazolyl)-2,5-diphenyl-2H-tetrazolium bromide (MTT) (Sigma Aldrich Co., St. Louis, MO, USA). To perform the assay the cells were seeded in 96-well plates at the following concentrations: HL-60 and K562 (0.3 × 10^6 cells/mL); MOLT-4 and PBMC (10^6 cells/mL); NCI-H292, HT-29, HEp-2 e MCF-7 (10^5 cells/mL). Briefly, the compounds previously dissolved in DMSO (dimethylsulfoxide, Vetec, São Paulo, Brazil), were diluted in medium and added to each well at the desired concentrations. For the calculation of the concentration that inhibits 50% of cell growth (IC50) the compounds were serially diluted to obtain the final concentrations between 0.19–25 μg/mL. Doxorubicin was used as the standard in the concentration range between (0.078–10 μg/mL). After 72 h of contact of the cells with the compounds, it was added to each well 25 μL of MTT solution (5 mg/mL). Plates were left for another 3 h in incubator at 37 °C and at the end of that period the supernatant was aspirated. To perform the reading, 100 μL of DMSO was added in each well for the dissolution of the formazan crystals. The amount of formazan was measured by reading the plate at 560 nm absorbance. The IC50 was calculated from the nonlinear regression in the Prisma 7.0 software (GraphPad, San Diego, CA, USA). Each sample was tested in triplicate in three independent experiments.

HL-60 = test: MTT cytotoxicity, 72 h; format: cell-based, human; details: MTT, 72 h of incubation
Experimental: as §1, §2, §3

HT-29 = test: MTT cytotoxicity, 72 h; format: cell-based, human
Experimental: as §1, §2, §3

K562 = test: MTT cytotoxicity, 72 h; format: cell-based, human
Experimental: as §1, §2, §3

MCF-7 = test: MTT cytotoxicity, 72 h; format: cell-based, human
Experimental: as §1, §2, §3

MOLT-4 = test: MTT cytotoxicity, 72 h; format: cell-based, human
Experimental: as §1, §2, §3

NCI-H292 = test: MTT cytotoxicity, 72 h; format: cell-based, human
Experimental: as §1, §2, §3

[1] = tested on: Peripheral Blood Mononuclear Cells (PBMCs); test: MTT cytotoxicity in normal cells, 72 h; format: cell-based, human; details: 72 h of incubation
Experimental: In order to evaluate the cytotoxic potential in normal cells, all the derivatives were tested against Peripheral Blood Mononuclear Cells (PBMCs) and the most promising compounds were again compounds 3c and 4a, which offered more selectivity against the cancer cells.
Mononuclear cells were obtained from the peripheral blood of healthy volunteers by heparin tube collection and isolated by Ficoll-Histopaque gradient centrifugation. After centrifugation, the cells were harvested, washed and resuspended in RPMI 1640 medium supplemented with 20% fetal bovine serum, 2 mM glutamine, 100 U/mL penicillin and 100 μg/mL streptomycin (Gibco™ Life Technologies, Waltham, MA, USA). The phytohemagglutinin mitogen 2% was also added into the culture medium. After that, using the neubauer chamber, the cells were counted and plated in a 96-well plate at a concentration of 10^6 cells/mL and then were maintained for overnight under incubation at 37 °C and 5% CO2 [65].
as §3

CDK2/CyclinA = CDK2/CyclinA (Homo sapiens, UniProt P24941); test: Kinase inhibition assay (ADP-Glo); format: biochemical; details: 10 µM ATP
Experimental: HsCDK2/CyclinA (human, cyclin-dependent kinase-2, kindly provided by Dr. A. Echalier-Glazer, Leicester, UK) was assayed in buffer A with 0.8 µg/µL of histone H1 as substrate.

CDK5/p25 = molecular target: T1, CDK5/p25 (Homo sapiens, UniProt Q00535); test: Kinase inhibition assay (ADP-Glo); format: biochemical; details: 10 µM ATP
T1 construct: made in house; host or cells: bacteria
T1 sequence (Q00535 whole entry): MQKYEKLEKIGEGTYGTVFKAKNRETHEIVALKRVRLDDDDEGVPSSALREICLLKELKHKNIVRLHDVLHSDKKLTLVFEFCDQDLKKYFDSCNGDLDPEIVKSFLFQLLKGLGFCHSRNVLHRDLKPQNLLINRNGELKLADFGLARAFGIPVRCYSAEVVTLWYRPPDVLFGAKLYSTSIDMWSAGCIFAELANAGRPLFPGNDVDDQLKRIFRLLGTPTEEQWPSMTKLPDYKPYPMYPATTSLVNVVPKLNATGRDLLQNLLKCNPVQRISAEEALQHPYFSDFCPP
T1 sequence (Q15078 99-307 partner limits assumed): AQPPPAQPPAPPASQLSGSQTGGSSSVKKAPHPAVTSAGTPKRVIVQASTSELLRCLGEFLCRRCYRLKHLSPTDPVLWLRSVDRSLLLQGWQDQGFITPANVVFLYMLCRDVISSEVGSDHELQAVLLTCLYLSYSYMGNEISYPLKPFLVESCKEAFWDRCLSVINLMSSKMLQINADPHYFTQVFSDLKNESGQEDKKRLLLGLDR
Experimental: HsCDK5/p25 (human, recombinant, expressed in bacteria) was assayed in buffer A, with 0.8 µg/µL of histone H1 as substrate.

HASPIN = molecular target: T2, HASPIN (Homo sapiens, UniProt Q8TF76); test: Kinase inhibition assay (ADP-Glo); format: biochemical; details: 10 µM ATP
T2 construct: kinase domain, amino acids 470 to 798; made in house; host or cells: bacteria
T2 sequence (Q8TF76 470-798): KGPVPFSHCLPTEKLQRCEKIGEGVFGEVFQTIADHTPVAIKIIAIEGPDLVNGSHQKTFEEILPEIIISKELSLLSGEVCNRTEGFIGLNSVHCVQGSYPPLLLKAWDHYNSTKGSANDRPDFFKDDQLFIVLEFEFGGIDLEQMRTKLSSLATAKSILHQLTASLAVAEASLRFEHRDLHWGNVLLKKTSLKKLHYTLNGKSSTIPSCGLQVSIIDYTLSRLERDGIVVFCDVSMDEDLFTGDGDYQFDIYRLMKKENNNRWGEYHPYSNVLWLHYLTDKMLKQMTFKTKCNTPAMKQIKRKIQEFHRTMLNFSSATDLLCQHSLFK
Experimental: HsHASPIN (human, kinase domain, amino acids 470 to 798, recombinant, expressed in bacteria) was assayed in buffer A with 0.007 µg/µL of Histone H3 (1-21) peptide ([…]) as substrate;

PIM1 = molecular target: T3, PIM1 (Homo sapiens, UniProt P11309); test: Kinase inhibition assay (ADP-Glo); format: biochemical; details: 10 µM ATP
T3 construct: made in house; host or cells: bacteria
T3 sequence (P11309 whole entry): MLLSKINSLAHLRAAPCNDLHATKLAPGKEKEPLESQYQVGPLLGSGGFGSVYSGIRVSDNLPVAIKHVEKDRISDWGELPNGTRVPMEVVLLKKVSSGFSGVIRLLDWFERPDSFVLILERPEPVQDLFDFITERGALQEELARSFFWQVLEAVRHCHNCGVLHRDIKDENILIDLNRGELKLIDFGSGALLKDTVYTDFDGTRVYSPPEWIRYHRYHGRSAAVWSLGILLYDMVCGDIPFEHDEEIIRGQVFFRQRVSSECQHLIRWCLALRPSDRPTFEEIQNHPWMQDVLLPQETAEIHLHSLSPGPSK
Experimental: HsPIM1 (human proto-oncogene, recombinant, expressed in bacteria) was assayed in buffer B with 0.8 µg/µL of histone H1 (Sigma #H5505) as substrate.

CLK1 = molecular target: T4, CLK1 (Mus musculus, UniProt P22518); test: Kinase inhibition assay (ADP-Glo); format: biochemical; details: 10 µM ATP
T4 construct: made in house; host or cells: bacteria
T4 sequence (P22518 whole entry): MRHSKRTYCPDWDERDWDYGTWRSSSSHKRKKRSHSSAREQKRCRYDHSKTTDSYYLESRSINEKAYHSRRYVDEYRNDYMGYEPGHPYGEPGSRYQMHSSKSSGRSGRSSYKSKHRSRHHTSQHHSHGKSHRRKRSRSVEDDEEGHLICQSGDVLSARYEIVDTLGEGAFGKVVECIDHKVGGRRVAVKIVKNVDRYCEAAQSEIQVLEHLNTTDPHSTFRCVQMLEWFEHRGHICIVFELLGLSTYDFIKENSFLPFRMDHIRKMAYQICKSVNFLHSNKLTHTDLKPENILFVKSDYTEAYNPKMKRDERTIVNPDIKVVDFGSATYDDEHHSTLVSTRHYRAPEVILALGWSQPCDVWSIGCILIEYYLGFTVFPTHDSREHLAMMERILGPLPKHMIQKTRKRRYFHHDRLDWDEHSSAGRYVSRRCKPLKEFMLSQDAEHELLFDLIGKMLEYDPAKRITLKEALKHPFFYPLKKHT
Experimental: MmCLK1 (from Mus musculus, recombinant, expressed in bacteria) was assayed in buffer A with 0.027μg/µL of the following peptide: GRSRSRSRSRSR as substrate.

DYRK1A = molecular target: T5, DYRK1A (Rattus norvegicus, UniProt Q63470); test: Kinase inhibition assay (ADP-Glo); format: biochemical; details: 10 µM ATP
T5 construct: amino acids 1 to 499 including the kinase domain; made in house; host or cells: bacteria
Experimental: RnDYRK1A (Rattus norvegicus, amino acids 1 to 499 including the kinase domain, recombinant, expressed in bacteria, DNA vector kindly provided by Dr. W. Becker, Aachen, Germany) was assayed in buffer A with 0.033 μg/µL of the following peptide: KKISGRLSPIMTEQ as substrate.

CK1δ/ε = test: Kinase inhibition assay (ADP-Glo); format: biochemical, Sus scrofa domesticus; details: 10 µM ATP
Experimental: SscCK1δ/ε (Sus scrofa domesticus, casein kinase 1δ/ε, affinity purified from porcine brain) was assayed in buffer A, with 0.022 μg/μL of the following peptide: RRKHAAIGSpAYSITA (“Sp” stands for phosphorylated serine) as CK1-specific substrate.

GSK3 α/β = test: Kinase inhibition assay (ADP-Glo); format: biochemical, Sus scrofa domesticus; details: 10 µM ATP
Experimental: SscGSK-3α/β (Sus scrofa domesticus, glycogen synthase kinase-3, affinity purified from porcine brain) was assayed in buffer A with 0.010 µg/µL of GS-1 peptide, a GSK-3-selective substrate ([…]pEDEEE, “Sp” stands for phosphorylated serine).

AURKB = molecular target: T6, AURKB (Homo sapiens, UniProt Q96GD4); test: Kinase inhibition assay (ADP-Glo); format: biochemical; details: 10 µM ATP
T6 construct: purchased SignalChem A31-10G; host or cells: Sf9 insect cells (baculovirus)
T6 sequence (Q96GD4 whole entry): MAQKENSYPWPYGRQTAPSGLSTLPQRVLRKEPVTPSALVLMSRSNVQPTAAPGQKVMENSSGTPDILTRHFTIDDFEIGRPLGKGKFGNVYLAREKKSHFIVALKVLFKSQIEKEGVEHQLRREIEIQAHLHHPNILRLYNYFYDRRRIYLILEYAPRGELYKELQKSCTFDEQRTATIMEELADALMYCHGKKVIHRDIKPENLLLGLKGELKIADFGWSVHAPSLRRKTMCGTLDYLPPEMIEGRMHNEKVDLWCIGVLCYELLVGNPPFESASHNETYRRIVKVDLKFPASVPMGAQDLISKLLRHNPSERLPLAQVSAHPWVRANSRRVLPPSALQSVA

CDK9/CyclinT = CDK9/CyclinT (Homo sapiens, UniProt P50750); test: Kinase inhibition assay (ADP-Glo)
CDK9/CyclinT, sequence (P50750 whole entry): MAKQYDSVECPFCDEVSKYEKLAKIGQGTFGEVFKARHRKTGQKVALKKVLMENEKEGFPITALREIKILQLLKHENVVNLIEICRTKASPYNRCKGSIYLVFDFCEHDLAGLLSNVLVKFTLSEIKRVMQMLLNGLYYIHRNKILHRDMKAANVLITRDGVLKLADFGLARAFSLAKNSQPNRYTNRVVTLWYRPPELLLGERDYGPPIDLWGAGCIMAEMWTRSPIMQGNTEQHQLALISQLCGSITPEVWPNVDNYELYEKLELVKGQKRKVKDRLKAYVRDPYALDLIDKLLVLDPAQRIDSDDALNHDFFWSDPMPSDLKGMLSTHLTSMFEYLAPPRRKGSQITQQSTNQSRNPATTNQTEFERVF
CDK9/CyclinT, sequence (O60563 whole entry partner): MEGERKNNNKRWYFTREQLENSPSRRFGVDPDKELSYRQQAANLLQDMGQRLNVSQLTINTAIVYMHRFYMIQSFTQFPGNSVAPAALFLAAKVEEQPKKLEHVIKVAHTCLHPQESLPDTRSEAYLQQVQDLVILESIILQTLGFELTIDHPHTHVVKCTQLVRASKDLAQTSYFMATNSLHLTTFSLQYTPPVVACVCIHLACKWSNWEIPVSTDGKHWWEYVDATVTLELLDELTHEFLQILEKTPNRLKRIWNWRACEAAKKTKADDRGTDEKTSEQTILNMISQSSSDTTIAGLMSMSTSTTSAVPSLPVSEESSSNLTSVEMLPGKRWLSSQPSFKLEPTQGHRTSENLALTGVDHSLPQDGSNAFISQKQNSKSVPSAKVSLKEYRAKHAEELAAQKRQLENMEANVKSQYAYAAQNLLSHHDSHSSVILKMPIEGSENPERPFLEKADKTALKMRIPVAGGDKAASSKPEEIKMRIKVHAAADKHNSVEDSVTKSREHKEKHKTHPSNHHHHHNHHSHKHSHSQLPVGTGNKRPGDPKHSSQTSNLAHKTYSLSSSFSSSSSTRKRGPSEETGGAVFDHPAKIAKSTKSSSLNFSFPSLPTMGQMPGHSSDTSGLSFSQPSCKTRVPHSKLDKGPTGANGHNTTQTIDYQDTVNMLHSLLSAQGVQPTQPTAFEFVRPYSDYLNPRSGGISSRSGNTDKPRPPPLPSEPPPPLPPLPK

[2] = Homo sapiens, HEp-2, 72 h of incubation
[3] = Homo sapiens, HT-29, 72 h of incubation
[4] = Homo sapiens, K562, 72 h of incubation
[5] = Homo sapiens, MCF7, 72 h of incubation
[6] = Homo sapiens, MOLT-4, 72 h of incubation
[7] = Homo sapiens, NCI-H292, 72 h of incubation

melting point [°C]	IC50 (CDK2/CyclinA) [µM]	IC50 (CDK5/p25) [µM]	IC50 (HASPIN) [µM]	IC50 (PIM1) [µM]	IC50 (CLK1) [µM]	IC50 (DYRK1A) [µM]	IC50 (CK1δ/ε) [µM]	IC50 (GSK3 α/β) [µM]	IC50 (AURKB) [µM]	IC50 (CDK9/CyclinT) [µM]	Molecule	IC50 (HEp-2; [2]) [µM]	IC50 (HL-60; Homo sapiens, HL-60) [µM]	IC50 (HT-29; [3]) [µM]	IC50 (K562; [4]) [µM]	IC50 (MCF-7; [5]) [µM]	IC50 (MOLT-4; [6]) [µM]	IC50 (NCI-H292; [7]) [µM]	IC50 ([1]; Homo sapiens, PBMC) [µM]	also measured
210 to 212	–	–	–	–	–	–	–	–	–	–	COc1ccc(C=NNC(N)=O)cc1 [Compound 3a, 4-Methoxybenzaldehyde Semicarbazone]	> 100	> 100	> 100	> 100	> 100	> 100	> 100	> 100	–
246 to 247	> 10	> 10	> 10	> 10	> 10	> 10	> 10	> 10	> 10	> 10	NC(=O)NN=Cc1ccc(Cl)c(Cl)c1 [Compound 3f, 3,4-Dichlorobenzaldehyde Semicarbazone]	8.61 ± 0.35	14.2 ± 1.41	> 100	26.3 ± 1.86	23.3 ± 1.55	> 100	> 100	> 100	–
225 to 226	–	–	–	–	–	–	–	–	–	–	NC(=O)NN=Cc1ccncc1 [Compound 3i, 4-Pyridinecarboxaldehyde Semicarbazone]	> 100	> 100	> 100	> 100	> 100	> 100	> 100	> 100	–
237 to 239	–	–	–	–	–	–	–	–	–	–	COc1cc(C=NNC(N)=O)ccc1O [Compound 3b, 4-Hydroxy-3-methoxybenzaldehyde Semicarbazone]	> 100	> 100	> 100	> 100	> 100	> 100	> 100	> 100	–
227 to 230	–	–	–	–	–	–	–	–	–	–	NC(=O)NN=Cc1cccs1 [Compound 3k, 2-Thiophenecarboxaldehyde Semicarbazone]	> 100	> 100	> 100	> 100	> 100	> 100	> 100	> 100	–
216 to 218	> 10	> 10	> 10	> 10	1.9	> 10	> 10	> 10	> 10	> 10	CC(C)(C)c1ccc(C=NNC(N)=O)cc1 [Compound 3h, 4-Tert-Butylbenzaldehyde Semicarbazone]	42.9 ± 0.75	> 100	47 ± 0.75	> 100	58.4 ± 1.86	25.5 ± 1.9	48.8 ± 0.97	49.7 ± 1.06	–
237 to 239	> 10	> 10	> 10	> 10	> 10	> 10	> 10	> 10	> 10	> 10	NC(=O)NN=Cc1ccc(Br)cc1 [Compound 3d, 4-Bromobenzaldehyde Semicarbazone]	23.1 ± 0.8	16.9 ± 1.1	> 100	25.2 ± 2.43	33.5 ± 0.75	37.2 ± 0.84	> 100	46.3 ± 0.97	–
–	–	–	–	–	–	–	–	–	–	–	2,6-Pyridinedicarboxaldehyde Semicarbazone [Compound 3j]	–	–	–	–	–	–	–	–	IC50 (HEp-2; 72 h of incubation): > 100 µM; IC50 (HL-60): > 100 µM; IC50 (HT-29; 72 h of incubation): > 100 µM; IC50 (K562; 72 h of incubation): > 100 µM; IC50 (MCF-7; 72 h of incubation): > 100 µM; IC50 (MOLT-4; 72 h of incubation): > 100 µM; IC50 (NCI-H292; 72 h of incubation): > 100 µM; IC50 [1]: > 100 µM
–	–	> 10	> 10	> 10	–	–	–	> 10	–	> 10	NC(=O)N/N=C/c1ccc([N+](=O)[O-])o1 [Compound 3m, 5-Nitro-2-furfuraldehyde Semicarbazone]	–	24.33 ± 0.16	28.4 ± 8.56	–	8.56 ± 0.01	–	31.9 ± 0.07	> 100	–
235 to 236	> 10	> 10	> 10	> 10	> 10	> 10	> 10	> 10	> 10	> 10	NC(=O)NN=Cc1ccc(Cl)cc1 [Compound 3e, 4-Chlorobenzaldehyde Semicarbazone]	22.3 ± 0.4	> 100	> 100	58.7 ± 0.97	33.9 ± 0.8	> 100	> 100	> 100	–

— paper PMC6958387, “Biological Evaluation of Arylsemicarbazone Derivatives as Potential Anticancer Agents” (Pharmaceuticals, 2019)
